Experimental findings from patent US11603349B2, “Anti-fibrotic compounds” (Certa Therapeutics Pty Ltd, priority 2017, dated 2023) are described below.

Structures can show the parent of a compound that is named as a salt.

Data set [1] in a line: in vitro. Particulars: rat, CC50 (μM).
Data set [2] deals with TGF-β induced [14C]-proline incorporation in rat mesangial cells. As to the kind of experiment: [14C]-proline incorporation assay (collagen biosynthesis). In kind it is cell-based. Particulars: inhibition of TGF-β1 (1 ng/ml) induced [14C]-proline incorporation, IRMC cells.
Data set [3] is described as follows: MTS tetrazolium reduction cell viability assay. Particulars: rat, rat mesangial cells (1097/IRMC cells), TGF-β1 stimulated, CC50 (μM), vs 1% DMSO vehicle. Background: Tetrazolium assays rely on reduction of a dye to a coloured formazan, in cell work by metabolically active cells.
A short description of data set [4]: Discrete oral pharmacokinetic studies in male Sprague Dawley rats. It is filed as in vivo, rat. Particulars: male SD rats; for change in plasma concentrations between the 75 and 350 mg/kg/day dosing groups: after the initial dose; for trough concentrations, 75 and 350 mg/kg/day dosing group: daily, throughout the 5-day study. The method, then: Discrete oral pharmacokinetic studies were performed for example compounds 116, 107, and 102.
116: 2 mg/kg and 20 mg/kg of 116 were administered as single doses to male Sprague Dawley (SD) rats. 75 mg/kg and 350 mg/kg of 116 were administered daily (5 days) to male Sprague Dawley (SD) rats.
107: 2 mg/kg and 20 mg/kg of 107 were administered as single doses to male Sprague Dawley (SD) rats. 75 mg/kg and 350 mg/kg of 107 were administered daily (5 days) to male Sprague Dawley (SD) rats.
102: 2 mg/kg and 20 mg/kg of 102 were administered as single doses to male Sprague Dawley (SD) rats. 75 mg/kg and 350 mg/kg of 102 were administered daily (5 days) to male Sprague Dawley (SD) rats. […] An increase in plasma concentrations were observed between the 75 and 350 mg/kg/day dosing groups.

[5] abbreviates: Rattus norvegicus, Mesangial cell, 44 h.

What is called IC50 is the point on the concentration scale where inhibition reaches its midpoint. Low values mean greater potency in that assay, high ones weaker potency in that assay. For the compound `COc1cc(/C=C/C(=O)Nc2ccccc2C(=O)O)ccc1C1=CCNCC1` [Example 98, (E)-2-(3-(3-methoxy-4-(1,2,3,6-tetrahydropyridin-4-yl)phenyl)acrylamido)benzoic Acid], in data set [1], the CC50 at 48 h amounted to 289 µM. Also, inhibition in data set [2] (setting [5]) was half-maximal at 13.5 µM (IC50).

`COc1cc(/C=C/C(=O)Nc2ccccc2C(=O)O)ccc1C1=CCN(C)CC1` [Example 99, (E)-2-(3-(3-methoxy-4-(1-methyl-1,2,3,6-tetrahydropyridin-4-yl)phenyl)acrylamido)benzoic Acid]: in data set [1], the CC50 at 48 h was > 300 µM. The compound also gave a half-maximal inhibitory concentration (IC50) in data set [2] (setting [5]) of 34.7 µM.

Take `COc1cc(/C=C/C(=O)Nc2ccccc2C(=O)O)ccc1CC1CC1` [Example 102, 2-[[(E)-3-[4-(cyclopropylmethyl)-3-methoxyphenyl]prop-2-enoyl]amino]benzoic Acid]: the CC50 at 48 h in data set [3] stood at 11.4 µM. Further, the “coverage of IC50 relative to a 200 mg/kg/day regime of FT011” value in data set [4] (20 mg/kg), in data set [4] (75 mg/kg) and in data set [4] (350 mg/kg) was “superior” each time. The “change in plasma concentrations between the 75 and 350 mg/kg/day dosing groups” value in data set [4] was “An increase”. The “trough concentrations, 75 and 350 mg/kg/day dosing group” value in data set [4] was “consistent with dosing amounts”. Besides, the half-inhibitory concentration (IC50) in data set [2] (setting [5]) came out at 3.87 µM.

`COc1ccc(/C=C/C(=O)Nc2ccccc2C(=O)O)cc1C1=CCN(C)CC1` [Example 104, (E)-2-(3-(4-methoxy-3-(1-methyl-1,2,3,6-tetrahydropyridin-4-yl)phenyl)acrylamido)benzoic acid trifluoroacetic acid salt] showed a CC50 at 48 h in data set [1] of 281 µM. This compound also gave an IC50 in data set [2] (setting [5]) of 41.4 µM.

Take `CN1CCOc2ccc(/C=C/C(=O)Nc3ccccc3C(=O)O)cc21` [Example 107, 2-[[(E)-3-(4-methyl-2,3-dihydro-1,4-benzoxazin-6-yl)prop-2-enoyl]amino]benzoic Acid]: the CC50 at 48 h in data set [3] was > 100 µM. In addition, the “coverage of IC50 relative to a 200 mg/kg/day regime of FT011” value in data set [4] (350 mg/kg) is “superior”. Further, the “adverse compound related effects” value in data set [4] (2 and 20 mg/kg single dose, 75 and 350 mg/kg daily (5 days)) is “No adverse compound related effects were observed”. Moreover, in data set [4], the “change in plasma concentrations between the 75 and 350 mg/kg/day dosing groups” value was “an increase”; the “trough concentrations, 75 and 350 mg/kg/day dosing group” value is given as “consistent with dosing amounts”. The compound further had an IC50 in data set [2] (setting [5]) of 14.9 µM.

`COc1cc(/C=C/C(=O)Nc2ccc(F)cc2)ccc1C1=CCNCC1` [Example 120, (E)-N-(4-fluorophenyl)-3-(3-methoxy-4-(1,2,3,6-tetrahydropyridin-4-yl)phenyl)acrylamide] came in with a CC50 at 48 h in data set [1] of 10.8 µM. This compound showed an IC50 in data set [2] (setting [5]) of 3.22 µM.

On to `C#CCOc1ccc(C2CC2C(=O)Nc2ccc(F)cc2)cc1OC` (stereo not shown) [Example 133, N-(4-fluorophenyl)-2-(3-methoxy-4-(prop-2-yn-1-yloxy)phenyl)cyclopropanecarboxamide], for which, in data set [3], the CC50 at 48 h was > 300 µM. In addition, the concentration for half-maximal inhibition (IC50) in data set [2] (setting [5]) was 23.4 µM.

For the compound `C#CCOc1ccc(C2CC2C(=O)n2nc(O)c3ccccc32)cc1OC` (stereo not shown) [Example 134, (3-hydroxy-1H-indazol-1-yl)(2-(3-methoxy-4-(prop-2-yn-1-yloxy)phenyl)cyclopropyl)methanone], in data set [3], the CC50 at 48 h was > 300 µM. This compound also showed a half-inhibitory concentration (IC50) in data set [2] (setting [5]) of 17.5 µM.

Take `C#CCOc1ccc(C2CC2C(=O)Nc2ccc(C#N)cc2)cc1OC` (stereo not shown) [Example 135, N-(4-cyanophenyl)-2-(3-methoxy-4-(prop-2-yn-1-yloxy)phenyl)cyclopropanecarboxamide]: the CC50 at 48 h in data set [3] was > 300 µM. Further, the midpoint of inhibition in data set [2] (setting [5]), the IC50, lay at 45.3 µM.

Consider `COc1cc(C2CC2C(=O)Nc2ccc(F)cc2)ccc1OC1CCN(C)C1` (stereo not shown) [Example 136, N-(4-fluorophenyl)-2-(3-methoxy-4-((1-methylpyrrolidin-3-yl)oxy)phenyl)cyclopropane-1-carboxamide], for which the CC50 at 48 h in data set [3] is 16.3 µM. Also, the IC50 in data set [2] (setting [5]) came to 4.13 µM.

Take `COc1cc(C2CC2C(=O)Nc2ccc(C#N)cc2)ccc1OC1CCN(C)C1` (stereo not shown) [Example 137, N-(4-cyanophenyl)-2-(3-methoxy-4-((1-methylpyrrolidin-3-yl)oxy)phenyl)cyclopropane-1-carboxamide]: in data set [3], the CC50 at 48 h turned out to be 30.8 µM. This compound also had an IC50 in data set [2] (setting [5]) of 15.4 µM.

Compound `COc1cc(C2CC2C(=O)Nc2ccccc2F)ccc1OC1CCN(C)C1` (stereo not shown) [Example 138, N-(2-fluorophenyl)-2-(3-methoxy-4-((1-methylpyrrolidin-3-yl)oxy)phenyl)cyclopropane carboxamide] registered a CC50 at 48 h in data set [3] of 50.9 µM. The midpoint of inhibition in data set [2] (setting [5]), the IC50, lay at 11 µM.

In the case of `COc1cc(/C=C/C(=O)Nc2cccc(Cl)c2)ccc1OCC1COC1` [Example 147, (E)-N-(3-chlorophenyl)-3-(3-methoxy-4-(oxetan-3-ylmethoxy)phenyl)acrylamide], the CC50 at 48 h in data set [3] is > 300 µM. 39.1 µM corresponded to half-maximal inhibition in data set [2] (setting [5]) (IC50).

Consider `COc1cc(C2CC2C(=O)Nc2cccc(Cl)c2)ccc1OCC1COC1` (stereo not shown) [Example 148, N-(3-chlorophenyl)-2-(3-methoxy-4-(oxetan-3-ylmethoxy)phenyl)cyclopropane-1-carboxamide], for which the CC50 at 48 h in data set [3] came out at 77.6 µM. This compound also registered a half-inhibitory concentration (IC50) in data set [2] (setting [5]) of 8.47 µM.

As to `COc1ccc(C2CC2C(=O)Nc2ccc(Cl)cc2)cc1OCc1cnn(C)c1` (stereo not shown) [Example 149, N-(4-chlorophenyl)-2-(4-methoxy-3-((1-methyl-1H-pyrazol-4-yl)methoxy)phenyl)cyclopropane-1-carboxamide], the CC50 at 48 h in data set [3] was > 54.8 µM. Further, the midpoint of inhibition in data set [2] (setting [5]), the IC50, lay at 8.35 µM.

In the case of `COc1ccc(/C=C/C(=O)Nc2cccnc2)cc1OCc1cnn(C)c1` [Example 150, (E)-3-(4-methoxy-3-((1-methyl-1H-pyrazol-4-yl)methoxy)phenyl)-N-(pyridin-3-yl)acrylamide], in data set [3], the CC50 at 48 h was > 31.6 µM. Also, the midpoint of inhibition in data set [2] (setting [5]), the IC50, lay at 4.08 µM.

For `COc1ccc(/C=C/C(=O)Nc2cccc(Cl)c2)cc1N1CCOCC1` [Example 151, (E)-N-(3-chlorophenyl)-3-(4-methoxy-3-morpholinophenyl)acrylamide], in data set [3], the CC50 at 48 h is > 300 µM. Besides, inhibition in data set [2] (setting [5]) was half-maximal at 31.6 µM (IC50).

On to `COc1cc(/C=C/C(=O)Nc2ccccc2Cl)ccc1OCC1COC1` [Example 152, (E)-N-(2-chlorophenyl)-3-(3-methoxy-4-(oxetan-3-ylmethoxy)phenyl)acrylamide], for which the CC50 at 48 h in data set [3] was > 300 µM. Further, inhibition in data set [2] (setting [5]) was half-maximal at 38.2 µM (IC50).

Consider `COc1cc(/C=C/C(=O)Nc2ccc(Cl)cc2)ccc1OCC1COC1` [Example 153, (E)-N-(4-chlorophenyl)-3-(3-methoxy-4-(oxetan-3-ylmethoxy)phenyl)acrylamide], for which the CC50 at 48 h in data set [3] is > 300 µM. Besides, in data set [2] (setting [5]), the concentration for half-maximal inhibition (IC50) was 35.4 µM.

For `COc1cc(C2CC2C(=O)Nc2ccc(Cl)cc2)ccc1OCC1COC1` (stereo not shown) [Example 154, N-(4-chlorophenyl)-2-(3-methoxy-4-(oxetan-3-ylmethoxy)phenyl)cyclopropane-1-carboxamide], in data set [3], the CC50 at 48 h was > 300 µM. Further, in data set [2] (setting [5]), half-maximal inhibition (IC50) required 8.97 µM.

`COc1cc(C2CC2C(=O)Nc2ccccc2Cl)ccc1OCC1COC1` (stereo not shown) [Example 155, N-(2-chlorophenyl)-2-(3-methoxy-4-(oxetan-3-ylmethoxy)phenyl)cyclopropane-1-carboxamide]: the CC50 at 48 h in data set [3] is 196 µM. The compound further displayed an IC50 in data set [2] (setting [5]) of 18.7 µM.

Turning to `COc1ccc(C2CC2C(=O)Nc2cccc(Cl)c2)cc1OCc1cnn(C)c1` (stereo not shown) [Example 156, N-(3-chlorophenyl)-2-(4-methoxy-3-((1-methyl-1H-pyrazol-4-yl)methoxy)phenyl)cyclopropane-1-carboxamide], in data set [3], the CC50 at 48 h is > 100 µM. Inhibition in data set [2] (setting [5]) was half-maximal at 17.8 µM (IC50).

For `COc1ccc(C2CC2C(=O)Nc2ccccc2Cl)cc1OCc1cnn(C)c1` (stereo not shown) [Example 157], the CC50 at 48 h in data set [3] was determined as 45.3 µM. In data set [2] (setting [5]), half-maximal inhibition (IC50) required 12.6 µM.

In data set [3], `COc1ccc(C2CC2C(=O)Nc2cccc(S(C)(=O)=O)c2)cc1OCc1cnn(C)c1` (stereo not shown) [Example 158, 2-(4-methoxy-3-((1-methyl-1H-pyrazol-4-yl)methoxy)phenyl)-N-(3-(methylsulfonyl)phenyl)cyclopropane-1-carboxamide] yielded a CC50 at 48 h of 68.8 µM. Besides, the IC50 in data set [2] (setting [5]) was 25.9 µM.

In the case of `COc1ccc(/C=C/C(=O)Nc2ccccc2Cl)cc1OCc1cnn(C)c1` [Example 159, (E)-N-(2-chlorophenyl)-3-(4-methoxy-3-((1-methyl-1H-pyrazol-4-yl)methoxy)phenyl)acrylamide], in data set [3], the CC50 at 48 h was > 10 µM. In data set [2] (setting [5]), this compound displayed a 50% inhibitory concentration (IC50) of 2.43 µM.

Consider `COc1ccc(/C=C/C(=O)Nc2cccc(Cl)c2)cc1OCc1cnn(C)c1` [Example 160, (E)-N-(3-chlorophenyl)-3-(4-methoxy-3-((1-methyl-1H-pyrazol-4-yl)methoxy)phenyl)acrylamide], for which the CC50 at 48 h in data set [3] is > 300 µM. Further, the IC50 in data set [2] (setting [5]) worked out at 30.4 µM.

In data set [3], `C#CCOc1ccc(/C=C/C(=O)Nc2ccccc2C(=O)O)cc1OC` [FT011, (E)-2-(3-(3-methoxy-4-(prop-2-yn-1-yloxy)phenyl)acrylamido)benzoic acid, reference compound] gave a CC50 at 48 h of 119 µM. The IC50 was found to be 17 µM in data set [2] (setting [5]) and 16 µM in data set [2] (44 hours).
